This note sets out measurements from publication PMC5658359, “A potent small-molecule inhibitor of the DCN1-UBC12 interaction that selectively blocks cullin 3 neddylation” (Nature Communications, 2017).

Structures are written as SMILES.

The subject of series [1] is neddylation of cullin 1 and other cullins. The series can be described thus: Western blotting of neddylated and un-neddylated cullin 1 and other cullins in cells. Conditions: THLE2 liver cells, up to 24 h, DI-591 10 µM, MLN4924 0.3 µM. It counts as cell-based. The source says: (§1) Treated cells were lysed by RIPA buffer supplemented with protease and phosphatase inhibitors. The expression level of indicated proteins was examined by immunoblotting analysis. GAPDH was used as the loading control.
(In general: Immunoblotting shows a protein as a band on a membrane.)

The subject of series [2] is NQO1 and HO1 mRNA. The series is described as follows: qRT-PCR of NRF2-regulated genes in THLE2 cells. In kind it is cell-based. Conditions: THLE2, 10 µM. From the text:
(§2) Total RNA in treated cells was isolated with the RNeasy Mini Kit (Qiagen, Germantown, MD). RNA was reverse transcribed into complementary DNA (cDNA) using high capacity RNA-to-cDNA kit (Applied Biosystems, Carlsbad, California). […] GAPDH was used as an internal reference. […] Error bars correspond to SD from three independent experiments.
(In qPCR the cycle at which signal appears reflects the starting amount.)

A short description of series [3]: Equilibrium aqueous solubility, small-scale shake-flask method. Conditions: for solubility at 24 h: thermodynamic from solid.
Description: The equilibrium aqueous solubility of an individual compound at different pH values was determined with a small-scale shake-flask method in Eppendorf tubes. Compounds were added as powder in excess to Britton-Robinson buffer at pH 2.0 or phosphate buffer at pH 7.4 until heterogeneous suspensions were obtained. Suspensions containing excessive compound powder were sonicated in a water bath for 30 min followed by incubation at room temperature with shaking for 24 h to achieve thermodynamic equilibrium. […] Supernatants obtained were filtered using Millipore MultiScreen filter plates equipped with 0.45 µm membranes. Compound concentrations in the saturated solutions were measured by UV spectroscopy at the maximum absorption wavelengths of each compound that were pre-determined by a spectrum scan.
Series [4] has as its target T1, DCN5 (Homo sapiens, UniProt Q9BTE7).
T1 construct: DCN2 (residues 62–259), DCN3 (residues 86–304), DCN4 (residues 102–292) and DCN5 (residues 47–237); His6-TEV (N, cleaved yes); made in house; host or cells: Rosetta2 cells (E. coli)
T1 sequence (Q9BTE7 47-237): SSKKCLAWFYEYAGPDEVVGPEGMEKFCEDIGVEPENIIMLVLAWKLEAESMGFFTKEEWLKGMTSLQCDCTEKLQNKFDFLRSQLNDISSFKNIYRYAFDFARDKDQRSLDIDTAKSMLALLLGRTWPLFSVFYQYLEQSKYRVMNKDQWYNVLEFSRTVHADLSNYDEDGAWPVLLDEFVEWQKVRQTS
The series can be described thus: Label-free BLI assay, DCN5. It counts as binding. The settings on record: concentrations up to 10 µM.

Series [5] relates to neddylation of cullin 3. The series can be described thus: Western blotting of neddylated and un-neddylated cullin 3 in cells. In kind it is cell-based. Conditions: THLE2 liver cells, DI-591 at 10 µM.
Source text: as §1

The test system of series [6] is THLE2 cells and five additional cancer cell lines. The series can be described thus: Cell viability, WST assay, panel of 6 cell lines. It counts as cell-based. Conditions: DI-591 at concentrations up to 20 µM.
Series [7] relates to NRF2 mRNA. The series can be described thus: qRT-PCR of NRF2 mRNA in THLE2 cells. In kind it is cell-based. The settings on record: THLE2, 10 µM.
Source text: as §2

The test system of series [8] is p21, Bim, CDT1. The series is described as follows: Western blotting of cullin 1 and 4A CRL substrates in cells. In kind it is cell-based. Conditions: western blot, 24 h.
Source text: as §1

Series [9] has as its target T2, NEDD8 E1 (APP-BP1/Uba3) (Homo sapiens, UniProt Q8TBC4).
T2 construct: purchased Boston Biochem
T2 sequence (Q8TBC4 1-463): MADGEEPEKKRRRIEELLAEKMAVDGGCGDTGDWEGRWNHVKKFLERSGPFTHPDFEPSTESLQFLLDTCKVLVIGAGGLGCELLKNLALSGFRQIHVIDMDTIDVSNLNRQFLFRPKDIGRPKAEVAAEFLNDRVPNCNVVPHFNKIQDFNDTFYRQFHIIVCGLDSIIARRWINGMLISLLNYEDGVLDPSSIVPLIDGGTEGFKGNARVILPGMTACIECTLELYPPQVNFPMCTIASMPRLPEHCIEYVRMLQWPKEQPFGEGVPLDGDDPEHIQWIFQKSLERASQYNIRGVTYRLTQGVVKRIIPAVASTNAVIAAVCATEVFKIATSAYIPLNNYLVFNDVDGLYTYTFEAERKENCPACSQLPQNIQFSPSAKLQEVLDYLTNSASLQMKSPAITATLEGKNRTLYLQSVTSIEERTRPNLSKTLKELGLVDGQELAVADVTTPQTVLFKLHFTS
T2 sequence (Q13564 1-534 partner): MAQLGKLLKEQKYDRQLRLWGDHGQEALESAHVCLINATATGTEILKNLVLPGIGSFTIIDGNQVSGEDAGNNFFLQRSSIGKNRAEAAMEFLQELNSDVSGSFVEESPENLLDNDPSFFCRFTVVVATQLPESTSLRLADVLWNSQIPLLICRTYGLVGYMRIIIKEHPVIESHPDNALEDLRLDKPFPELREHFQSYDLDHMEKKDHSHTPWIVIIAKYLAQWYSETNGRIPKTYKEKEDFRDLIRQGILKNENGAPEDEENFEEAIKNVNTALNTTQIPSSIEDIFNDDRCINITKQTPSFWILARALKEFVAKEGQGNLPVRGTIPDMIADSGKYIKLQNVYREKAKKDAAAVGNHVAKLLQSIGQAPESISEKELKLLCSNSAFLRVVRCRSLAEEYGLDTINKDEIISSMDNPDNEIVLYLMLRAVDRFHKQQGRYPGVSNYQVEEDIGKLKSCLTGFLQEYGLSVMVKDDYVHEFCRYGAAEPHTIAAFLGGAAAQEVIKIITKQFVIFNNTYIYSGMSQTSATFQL
The series can be described thus: In vitro UBC12~NEDD8 thioester forming assay. It counts as biochemical. Conditions: DI-591 at concentrations up to 100 µM. The method, then: NEDD8, NEDD8 E1 (APP-BP1/Uba3) and UBC12 proteins were purchased from Boston Biochem. NEDD8 (10 μM), NEDD8 E1 (25 nM), and UBC12 (2 μM) were incubated in Tris-HCl (pH 7.4, 50 mM), MgCl2 (5 mM), DTT (0.5 mM) and BSA (0.1 mg/ml), with a tested compound at 25 °C for 10 min. Reactions were initiated by addition of 2 mM ATP (or distilled H2O) and ran for 5 min at 25 °C. 1 M DTT (or distilled H2O) was added to the reaction mixtures which were then kept on ice for 1 min followed by addition of SDS loading buffer (without DTT). The products were separated by SDS–PAGE, visualized by Coomassie stain and quantified by ImageLab (Bio-Rad).
1 Supplementa ry Figure 3:
3 Supplementary Figure 3. In vitro U BC12~N EDD8 thio ester forming assay.N EDD8,
4 NEDD8 E1 (APP -BP 1/Uba3) and UBC12 were purchased from Boston Biochem. 10μ M
5 NEDD8, 25nM N EDD8 E1,and 2μ M UBC12 were incubated in 50mM Tris-HCl (pH 7.4), 5mM
6 M gC l 2, 0.5mM DTT, and 0.1mg/ml BSA, with indicated compounds at 25℃ for 10min.
7 Reactions were initiated by addition o f 2mM ATP (or dH2O) and w ere run for 5min at 25℃ .
8 Reaction mixtures were t hen added with 1M DTT (or dH 2O) and kept on ice for 1min followed
9 by addition of SDS Loading buffer (without DTT). The products were s eparated b y SDS-PAGE,
10 visualized by Coomassie stain and quantified using an ImageLab imager ( Bio-Rad). […]

Series [10] relates to NRF2. The series is described as follows: Western blotting of NRF2 protein in cells. In kind it is cell-based. The settings on record: western blot, 24 h.
Source text: as §1

Series [11] concerns the target T3, DCN4 (Homo sapiens, UniProt Q92564).
T3 construct: DCN2 (residues 62–259), DCN3 (residues 86–304), DCN4 (residues 102–292) and DCN5 (residues 47–237); His6-TEV (N, cleaved yes); made in house; host or cells: Rosetta2 cells (E. coli)
T3 sequence (Q92564 102-292): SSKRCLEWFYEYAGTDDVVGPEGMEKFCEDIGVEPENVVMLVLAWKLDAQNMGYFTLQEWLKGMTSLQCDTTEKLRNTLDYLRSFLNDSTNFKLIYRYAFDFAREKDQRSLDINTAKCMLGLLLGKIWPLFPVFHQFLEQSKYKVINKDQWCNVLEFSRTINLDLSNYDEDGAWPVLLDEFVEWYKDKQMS
The series is described as follows: Label-free BLI assay, DCN4. It counts as binding. Conditions: concentrations up to 10 µM.

In series [12] the target is T4, DCN3 (Homo sapiens, UniProt Q8IWE4).
T4 construct: DCN2 (residues 62–259), DCN3 (residues 86–304), DCN4 (residues 102–292) and DCN5 (residues 47–237); His6-TEV (N, cleaved yes); made in house; host or cells: Rosetta2 cells (E. coli)
T4 sequence (Q8IWE4 86-304): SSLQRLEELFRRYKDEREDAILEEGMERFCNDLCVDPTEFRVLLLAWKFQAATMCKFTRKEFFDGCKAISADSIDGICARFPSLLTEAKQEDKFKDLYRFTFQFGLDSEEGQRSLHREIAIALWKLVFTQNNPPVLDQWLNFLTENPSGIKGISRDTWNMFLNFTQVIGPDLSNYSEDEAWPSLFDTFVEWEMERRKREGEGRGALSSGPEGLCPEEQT
The series is described as follows: Label-free BLI assay, DCN3. The settings on record: concentrations up to 10 µM. In kind it is binding.

As for `CCC(=O)N[C@@H](Cc1nc2ccc(C(C)C)cc2s1)C(=O)N[C@H](CNC(=O)CCN1CCOCC1)C1CCCCC1` [DI-591], the “effect on neddylation of cullin 1, time course (in words)” value in [1] is recorded as “no effect”. The “mRNA levels of NQO1 and HO1 (in words)” value in [2] is “robustly increases”. In addition, in [3], the “aqueous solubility (in words)” value is listed as “excellent”. Further, the solubility (commonly the concentration that dissolves in the medium under given conditions) at 24 h in series [3] (Britton-Robinson buffer, pH 2, aqueous buffer) is more than 20 mM; in [3] (Britton-Robinson buffer, pH 2.02, aqueous buffer), more than 20 mM; in series [3] (phosphate buffer, pH 7.4, aqueous buffer), more than 20 mM. In series [4], the “binding to DCN5 (in words)” value is given as “no appreciable binding”. Also, the “time to complete depletion of neddylated cullin 3” value in series [5] is not above 5 min. Besides, in [6], the “cytotoxicity (in words)” value is recorded as “no significant cytotoxicity”. Further, the “mRNA level of NRF2 (in words)” value in [7] is given as “no effect”. Also, the “protein levels of p21, Bim and CDT1 (in words)” value in series [8] is reported as “no or minimal effect”. In addition, the “inhibition of UBC12 neddylation (E1 activity), in words” value in [9] is “no such effect”. Further, the “NRF2 protein level (in words)” value in series [10] is on record as “dose dependently increases”. Moreover, the “binding to DCN4 (in words)” value in [11] was “no appreciable binding”. For the same compound, the “binding to DCN3 (in words)” value in [12] was “no appreciable binding”.
